Laboratory results published in patent US20250002452A1, “BICYCLOPENTANE DERIVATIVES” (ICAGEN, LLC, priority 2022, published 2025).

Biological target: human Kv7.2 (Homo sapiens (Human), UniProt O43526)
Experiment: SyncroPatch 384 electrophysiology, activation of Kv7.2 in CHO cells
Assay type: cell-based
Details: Kv7.2 activation max %, relative to 30 μM ML-213 max activation
Description: The potency of Kv7 uotentiators was determined using the SyncroPatch 384 (Nanion) high throughput electrophysiology platform.
CHO cells stably expressing either human Kv7.2, Kv7.4 or Kv7.5/7.3 under a constitutive CMV promoter were used for these studies. Cells were maintained in F12 Hams+1 mM L-glutamine (Hyclone) supplemented with 10% FBS (Sigma), 0.3× NEAA (Non-essential Gamino-acids) and 400ug/ml G418 at 37° C. in 5% CO2. Cells were cultured in T-225 flasks (Nunc) for 2-3 days to reach 85-95% confluence prior to electrophysiological recording.
Earle's balanced salt solution (in mM): 135 NaCl, 5.4 KCl, 5 Glucose, 2 CaCl2), 1 MgCl2, 5 HEPES, pH 7.4. Seal enhancer solution (in mM): 90 NaCl, 3 KCl, 35 CaCl2), 10 MgCl2, 10 HEPES, pH 7.4. Extracellular recording solution (in mM): 71 NaCl, 70 NMDG, 13 KCl, 5 Glucose, 2 CaCl2), 1 MgCl2, 10 HEPES, pH 7.4. Intracellular recording solution (in mM): 130 KF, 20 KCl, 4 EGTA, 10 HEPES, 2 EDTA, 0.01 Escin, pH 7.2.
Cells were harvested for electrophysiological recording upon reaching appropriate confluence. Cells were first washed in DPBS (Hyclone, Cat #SH30028.03) and then 2 ml of Accutase (MP Biomedicals #1000449) was added at 28° C. until ˜90% of cells were suspended. F12 HAM's media+1 mM L-glutamine (Hyclone, SH30026.02) was then added to the flask to dilute the accutase. Cells were then triturated until a single cell suspension was achieved, a cell count was performed, and cells were centrifuged for 2 min. at 1,000 rpm. Media was then aspirated, and cells were resuspended in Earle's balanced salt solution to a concentration of 0.75×10^6 cells/ml and allowed to recover for 25 min at 10° C.
At the beginning of each assay, 20 μl of cell suspension was dispensed into each well of a multi-hole 384-well SyncroPatch chip by the onboard pipettor. Cell sealing was initiated, and seal enhancer solution was added to facilitate seal formation. Upon completion of sealing, cells were washed 3 times with extracellular recording solution and the assay voltage protocol was started. Human Kv7.2, Kv7.4 or Kv7.5/7.3 channels were evaluated using a voltage protocol in which cells were voltage-clamped at a holding potential of −60 mV. Potassium currents were continuously activated with a series of three voltage steps to −30 mV for 3 seconds, 40 mV for 1 second and −90 mV for 4 seconds with 12 seconds between successive voltage sweeps. Potassium currents were measured from the −90 mV repolarizing step. Baseline current was assessed for 3.5 minutes prior to the addition of 5.6 μM zinc pyrithione (1μM for Kv7.4). Kv7.2, Kv7.4 or Kv7.5/7.3 current in the presence of zinc pyrithione was acquired over five minutes to allow channels to reach steady state activity prior to addition of test agents. Channel activity was monitored for three minutes preceding the addition of 30 μM ML-213 (3 minutes) to achieve maximum activation. 150 mM TEA with 10 μM XE-991 was applied for 2 minutes to measure the leak current during maximum inhibition of Kv7.2, Kv7.4 or Kv7.5/7.3 channels.
Example 61 Data Analysis Data were collected on the SyncroPatch platform using PatchControl software (Nanion) and processed and analyzed using DataControl Software (Nanion). Percent activation was calculated from potassium current as follows: The average current for the 5 sweeps in the presence of zinc pyrithione immediately preceding test agent addition was taken as the ‘control’ data. Likewise, the average potassium current in the presence of test agents 5 sweeps immediately preceding addition of 30 μM ML-213 was determined for ‘drug’ data. The average potassium current 5 sweeps immediately prior to addition of 150 mM TEA+10 μM XE-991 was determined for ‘max activation’ data while average currents from 5 sweeps immediately following addition of TEA was determined for ‘max inhibition’ data. […]

**Q.** With `COC12CC(NC(=O)NCc3cccc(C(F)(F)F)c3)(C1)C2` [Example 4, 1-(3-methoxy-1-bicyclo[1.1.1]pentanyl)-3-[[3-(trifluoromethyl)phenyl]methyl]urea] as the compound, how does the Kv7.2 max read?
**A.** 64%

**Q.** For `O=C(NCc1cccc(C2COC2)c1)NC12CC(C(F)(F)F)(C1)C2` [Example 30, 1-[[3-(oxetan-3-yl)phenyl]methyl]-3-[3-(trifluoromethyl)-1-bicyclo[1.1.1]pentanyl]urea], which Kv7.2 max is on record?
**A.** 65%

**Q.** For `CC12CC(NC(=O)NCc3cccc(C#N)c3)(C1)C2` [Example 14, 1-[(3-cyanophenyl)methyl]-3-(3-methyl-1-bicyclo[1.1.1]pentanyl)urea], which Kv7.2 max is on record?
**A.** 50%

**Q.** With `CC(C)C12CC(NC(=O)NCc3cccc(C(F)(F)F)c3)(C1)C2` [Example 21, 1-(3-propan-2-yl-1-bicyclo[1.1.1]pentanyl)-3-[[3-(trifluoromethyl)phenyl]methyl]urea] as the compound, how does the Kv7.2 max read?
**A.** 67%

**Q.** How did the Kv7.2 max turn out when `CC(C)(C)c1cccc(CNC(=O)NC23CC(C2)C3)c1` [Example 42, 1-(1-bicyclo[1.1.1]pentanyl)-3-[(3-tert-butylphenyl)methyl]urea] was run?
**A.** 110%

**Q.** For `O=C(N[C@@H](CO)c1cccc(Br)c1)NC12CC(C(F)(F)F)(C1)C2` [Example 12, 1-[(1R)-1-(3-bromophenyl)-2-hydroxyethyl]-3-[3-(trifluoromethyl)-1-bicyclo[1.1.1]pentanyl]urea], which Kv7.2 max is on record?
**A.** 69%

**Q.** For `O=C(NCc1cccc(OC(F)F)c1)NC12CC(C(F)(F)F)(C1)C2` [Example 29, 1-[[3-(difluoromethoxy)phenyl]methyl]-3-[3-(trifluoromethyl)-1-bicyclo[1.1.1]pentanyl]urea], which Kv7.2 max is on record?
**A.** 52%

**Q.** `O=C(NCc1cccc(Br)c1)NC12CC(C(F)(F)F)(C1)C2` [Example 36, 1-[(3-bromophenyl)methyl]-3-[3-(trifluoromethyl)-1-bicyclo[1.1.1]pentanyl]urea] was tested. Which Kv7.2 max did it give?
**A.** 55%

**Q.** How did the Kv7.2 max turn out when `O=C(NCc1cccc(OC(F)(F)F)c1F)NC12CC(C(F)(F)F)(C1)C2` [Example 57, 1-[[3-(trifluoromethoxy)-2-fluorophenyl]methyl]-3-[3-(trifluoromethyl)-1-bicyclo[1.1.1]pentanyl]urea] was run?
**A.** 45%

**Q.** `O=C(NCc1cccc(OCF)c1)NC12CC(C(F)(F)F)(C1)C2` [Example 34, 1-[[3-(fluoromethoxy)phenyl]methyl]-3-[3-(trifluoromethyl)-1-bicyclo[1.1.1]pentanyl]urea] was tested. Which Kv7.2 max did it give?
**A.** 56%

**Q.** With `O=C(NCc1cccc(F)c1)NC12CC(F)(C1)C2` [Example 19, 1-(3-fluoro-1-bicyclo[1.1.1]pentanyl)-3-[(3-fluorophenyl)methyl]urea] as the compound, how does the Kv7.2 max read?
**A.** 49%

**Q.** With `O=C(NCc1cccc(Cl)c1)NC12CC(C1)C2` [Example 41, 1-(1-bicyclo[1.1.1]pentanyl)-3-[(3-chlorophenyl)methyl]urea] as the compound, how does the Kv7.2 max read?
**A.** 49%

**Q.** `C[C@H](NC(=O)NC12CC(F)(C1)C2)c1cccc(Cl)c1` [Example 18, 1-[(1S)-1-(3-chlorophenyl)ethyl]-3-(3-fluoro-1-bicyclo[1.1.1]pentanyl)urea] was tested. Which Kv7.2 max did it give?
**A.** 47%

**Q.** `O=C(NCc1cccc(OC(F)F)c1)NC12CC(C1)C2` [Example 43, 1-(1-bicyclo[1.1.1]pentanyl)-3-[[3-(difluoromethoxy)phenyl]methyl]urea] was tested. Which Kv7.2 max did it give?
**A.** 78%

**Q.** Which Kv7.2 max does the source give for `N#CCOc1cccc(CNC(=O)NC23CC(C(F)(F)F)(C2)C3)c1` [Example 49, 1-[[3-(cyanomethoxy)phenyl]methyl]-3-[3-(trifluoromethyl)-1-bicyclo[1.1.1]pentanyl]urea] here?
**A.** 53%

**Q.** For `O=C(NCc1cccc(C(F)(F)F)c1)NC12CC(C1)C2` [Example 23, 1-(1-bicyclo[1.1.1]pentanyl)-3-[[3-(trifluoromethyl)phenyl]methyl]urea], which Kv7.2 max is on record?
**A.** 79%

**Q.** `O=C(NCc1cccc(C(F)(F)F)c1)NC12CC(F)(C1)C2` [Example 11, 1-(3-fluoro-1-bicyclo[1.1.1]pentanyl)-3-[[3-(trifluoromethyl)phenyl]methyl]urea] was tested. Which Kv7.2 max did it give?
**A.** 80%

**Q.** `N#Cc1cccc(CNC(=O)NC23CC(C(F)F)(C2)C3)c1` [Example 15, 1-[(3-cyanophenyl)methyl]-3-[3-(difluoromethyl)-1-bicyclo[1.1.1]pentanyl]urea] was tested. Which Kv7.2 max did it give?
**A.** 58%

**Q.** For `C#Cc1cccc(CNC(=O)NC23CC(C(F)(F)F)(C2)C3)c1` [Example 32, 1-[(3-ethynylphenyl)methyl]-3-[3-(trifluoromethyl)-1-bicyclo[1.1.1]pentanyl]urea], which Kv7.2 max is on record?
**A.** 54%

**Q.** With `O=C(NCc1cccc(C(F)(F)F)c1)NC12CC(C(F)F)(C1)C2` [Example 22, 1-[3-(difluoromethyl)-1-bicyclo[1.1.1]pentanyl]-3-[[3-(trifluoromethyl)phenyl]methyl]urea] as the compound, how does the Kv7.2 max read?
**A.** 74%

**Q.** With `O=C(N[C@@H](CO)c1cccc(Br)c1)NC12CC(F)(C1)C2` [Example 17, 1-[(1R)-1-(3-bromophenyl)-2-hydroxyethyl]-3-(3-fluoro-1-bicyclo[1.1.1]pentanyl)urea] as the compound, how does the Kv7.2 max read?
**A.** 69%

**Q.** Which Kv7.2 max does the source give for `O=C(NCc1cccc(S(F)(F)(F)(F)F)c1)NC12CC(C1)C2` [Example 39, 1-(1-bicyclo[1.1.1]pentanyl)-3-[[3-(pentafluoro-λ6-sulfanyl)phenyl]methyl]urea] here?
**A.** 75%

**Q.** How did the Kv7.2 max turn out when `CC12CC(NC(=O)NCc3cccc(OC(F)(F)F)c3)(C1)C2` [Example 46, 1-(3-methyl-1-bicyclo[1.1.1]pentanyl)-3-[[3-(trifluoromethoxy)phenyl]methyl]urea] was run?
**A.** 86%

**Q.** For `[2H]C([2H])(NC(=O)NC12CC(C(F)(F)F)(C1)C2)c1cccc(OC(F)(F)F)c1` [Example 35, 1-[dideuterio-[3-(trifluoromethoxy)phenyl]methyl]-3-[3-(trifluoromethyl)-1-bicyclo[1.1.1]pentanyl]urea], which Kv7.2 max is on record?
**A.** 63%

**Q.** Which Kv7.2 max does the source give for `O=C(NCc1cccc(OCC(F)(F)F)c1)NC12CC(C(F)(F)F)(C1)C2` [Example 58, 1-[[3-(2,2,2-trifluoroethoxy)phenyl]methyl]-3-[3-(trifluoromethyl)-1-bicyclo[1.1.1]pentanyl]urea] here?
**A.** 67%

**Q.** With `O=C(NCc1ccc(F)c(OC(F)F)c1)NC12CC(C(F)(F)F)(C1)C2` [Example 56, 1-[[3-(difluoromethoxy)-4-fluorophenyl]methyl]-3-[3-(trifluoromethyl)-1-bicyclo[1.1.1]pentanyl]urea] as the compound, how does the Kv7.2 max read?
**A.** 44%

**Q.** `C[C@H](NC(=O)NC12CC(F)(C1)C2)c1cccc(Br)c1` [Example 16, 1-[(1S)-1-(3-bromophenyl)ethyl]-3-(3-fluoro-1-bicyclo[1.1.1]pentanyl)urea] was tested. Which Kv7.2 max did it give?
**A.** 40%

**Q.** Which Kv7.2 max does the source give for `O=C(N[C@@H](CO)c1cccc(OC(F)(F)F)c1)NC12CC(C(F)(F)F)(C1)C2` [Example 55, 1-[(1R)-2-hydroxy-1-[3-(trifluoromethoxy)phenyl]ethyl]-3-[3-(trifluoromethyl)-1-bicyclo[1.1.1]pentanyl]urea] here?
**A.** 77%

**Q.** With `O=C(N[C@@H](CO)c1cccc(C(F)(F)F)c1)NC12CC(C1)C2` [Example 54, 1-(1-bicyclo[1.1.1]pentanyl)-3-[(1R)-2-hydroxy-1-[3-(trifluoromethyl)phenyl]ethyl]urea] as the compound, how does the Kv7.2 max read?
**A.** 78%

**Q.** `O=C(NC12CC(C1)C2)NC1(c2cccc(C(F)(F)F)c2)CC1` [Example 53, 1-(1-bicyclo[1.1.1]pentanyl)-3-[1-[3-(trifluoromethyl)phenyl]cyclopropyl]urea] was tested. Which Kv7.2 max did it give?
**A.** 82%

**Q.** How did the Kv7.2 max turn out when `CC(NC(=O)NC12CC(F)(C1)C2)c1cccc(OC(F)F)c1` (stereo not shown) [Example 38, 1-[1-[3-(difluoromethoxy)phenyl]ethyl]-3-(3-fluoro-1-bicyclo[1.1.1]pentanyl)urea] was run?
**A.** 40%
